The results in this text go back to ChEMBL document CHEMBL4152193, “Phthalimide conjugations for the degradation of oncogenic PI3K” (Eur J Med Chem, 2018).

The test system of assay [1] is HepG2. In words: Induction of apoptosis in human HepG2 cells assessed as early apoptotic cells at 25 uM after 24 hrs by Annexin V-FITC/propidium iodide staining-based flow cytometric analysis (reference value: 2.46%). The format is functional. (In flow cytometry, cells or beads pass a laser one at a time.)
Assay [2] addresses T1, Protein cereblon-pI3K (Homo sapiens) (UniProt P42338+P48736+P42336+O00329+Q96SW2). The assay can be described thus: Protac activity against PI3K/E3 ligase in human HepG2 cells assessed as increase in conversion of LC3B-1 to LC3B-2 at 10 uM after 3 hrs in human HepG2 cells by Western blot analysis. The format is cell-based. (In general: Immunoblotting shows a protein as a band on a membrane.)

For assay [3], the system named is HepG2. The assay can be described thus: Induction of apoptosis in human HepG2 cells assessed as late apoptotic cells at 5 uM after 24 hrs by Annexin V-FITC/propidium iodide staining-based flow cytometric analysis (reference value: 7.34%). The format is functional.
For assay [4], the system named is HepG2. The assay can be described thus: Induction of apoptosis in human HepG2 cells assessed as late apoptotic cells at 10 uM after 24 hrs by Annexin V-FITC/propidium iodide staining-based flow cytometric analysis (reference value: 7.34%). The format is functional.
Assay [5] has as its system HepG2. In words: Cell cycle arrest in human HepG2 cells assessed as accumulation at S phase at 25 uM after 24 hrs by flow cytometric analysis (reference value: 3.77%). The format is functional.
The subject of assay [6] is HepG2. In words: Cell cycle arrest in human HepG2 cells assessed as accumulation at S phase at 10 uM after 24 hrs by flow cytometric analysis (reference value: 3.77%). The format is functional.
The test system of assay [7] is HepG2. In words: Antiproliferative activity against human HepG2 cells assessed as inhibition of cell proliferation at 10 uM after 48 hrs by MTT assay. The format is functional. The note with it: HepG2, 48 h.
The target of assay [8] is Phosphatidylinositol 4,5-bisphosphate 3-kinase catalytic subunit alpha isoform (Homo sapiens, UniProt P42336). The assay can be described thus: Inhibition of PI3Kalpha (unknown origin) using PIP2 as substrate after 1 hr by Kinase-Glo luminescent kinase assay. Background: Kinase-Glo measures the ATP left after a reaction by luminescence.
Assay [9] has as its system HepG2. In words: Cell cycle arrest in human HepG2 cells assessed as accumulation at G0/G1 phase at 5 uM after 24 hrs by flow cytometric analysis (reference value: 86.6%). The format is functional.
In assay [10] the target is T1, Protein cereblon-pI3K (Homo sapiens). In words: Protac activity against PI3K/E3 ligase in human HepG2 cells assessed as reduction in cyclin D1 protein level at 10 uM in human HepG2 cells by Western blot analysis. The format is cell-based. Particulars: TDE = time-dependent effect.
The test system of assay [11] is HepG2. The assay can be described thus: Cell cycle arrest in human HepG2 cells assessed as accumulation at G2/M phase at 25 uM after 24 hrs by flow cytometric analysis (reference value: 9.25%). The format is functional.
Assay [12] has as its system HepG2. In words: Induction of apoptosis in human HepG2 cells assessed as necrotic cells at 25 uM after 24 hrs by Annexin V-FITC/propidium iodide staining-based flow cytometric analysis (reference value: 0.052%). The format is functional.
Assay [13] has as its system HepG2. In words: Induction of apoptosis in human HepG2 cells assessed as necrotic cells at 5 uM after 24 hrs by Annexin V-FITC/propidium iodide staining-based flow cytometric analysis (reference value: 0.052%). The format is functional.
The subject of assay [14] is HepG2. The assay can be described thus: Induction of apoptosis in human HepG2 cells assessed as necrotic cells at 10 uM after 24 hrs by Annexin V-FITC/propidium iodide staining-based flow cytometric analysis (reference value: 0.052%). The format is functional.
Assay [15] concerns the target T1, Protein cereblon-pI3K (Homo sapiens). In words: Protac activity against PI3K/E3 ligase in human HepG2 cells assessed as reduction in phosphorylated S6K protein level in human HepG2 cells after 24 hrs by Western blot analysis. The format is cell-based.
In assay [16] the test system is HepG2. In words: Cell cycle arrest in human HepG2 cells assessed as accumulation at G0/G1 phase at 25 uM after 24 hrs by flow cytometric analysis (reference value: 86.6%). The format is functional.
Assay [17] has as its system HepG2. The assay can be described thus: Induction of apoptosis in human HepG2 cells assessed as early apoptotic cells at 10 uM after 24 hrs by Annexin V-FITC/propidium iodide staining-based flow cytometric analysis (reference value: 2.46%). The format is functional.
Assay [18] concerns the target T1, Protein cereblon-pI3K (Homo sapiens). In words: Protac activity against PI3K/E3 ligase in human HepG2 cells assessed as induction of p110alpha protein degradation at 10 uM in human HepG2 cells by Western blot analysis. The format is cell-based.
Assay [19] has as its system HepG2. The assay can be described thus: Induction of apoptosis in human HepG2 cells assessed as viable cells at 10 uM after 24 hrs by Annexin V-FITC/propidium iodide staining-based flow cytometric analysis (reference value: 90.1%). The format is functional. Particulars: HepG2, 24 h, read-out: Activity.
In assay [20] the target is T1, Protein cereblon-pI3K (Homo sapiens). In words: Protac activity against PI3K/E3 ligase in human HepG2 cells assessed as reduction in phosphorylated GSK3beta protein level at 10 uM in human HepG2 cells by Western blot analysis. The format is cell-based. The note with it: TDE = time-dependent effect.
Assay [21] has as its system HepG2. The assay can be described thus: Induction of autophagy in GFP-LC3 transfected human HepG2 cells assessed as increase in LC3 puncta at 10 uM after 6 hrs by DAPI staining-based fluorescence microscopy. The format is functional, cell-based.
In assay [22] the test system is HepG2. In words: Antiproliferative activity against human HepG2 cells at 1 to 50 uM after 48 hrs by MTT assay. The format is functional, cell-based.
The test system of assay [23] is HepG2. In words: Cell cycle arrest in human HepG2 cells assessed as accumulation at G0/G1 phase at 10 uM after 24 hrs by flow cytometric analysis (reference value: 86.6%). The format is functional.
Assay [24] relates to HepG2. The assay can be described thus: Induction of apoptosis in human HepG2 cells assessed as viable cells at 25 uM after 24 hrs by Annexin V-FITC/propidium iodide staining-based flow cytometric analysis (reference value: 90.1%). The format is functional. Particulars: HepG2, 24 h, read-out: Activity.
Assay [25] has as its system HepG2. The assay can be described thus: Cell cycle arrest in human HepG2 cells assessed as accumulation at S phase at 5 uM after 24 hrs by flow cytometric analysis (reference value: 3.77%). The format is functional.
The subject of assay [26] is HepG2. The assay can be described thus: Induction of apoptosis in human HepG2 cells assessed as early apoptotic cells at 5 uM after 24 hrs by Annexin V-FITC/propidium iodide staining-based flow cytometric analysis (reference value: 2.46%). The format is functional.
The target in assay [27] is T1, Protein cereblon-pI3K (Homo sapiens). The assay can be described thus: Protac activity against PI3K/E3 ligase in human HepG2 cells assessed as reduction in Akt phosphorylation at Ser-473 residue in human HepG2 cells after 24 hrs by Western blot analysis. The format is cell-based.
The subject of assay [28] is HepG2. The assay can be described thus: Cell cycle arrest in human HepG2 cells assessed as accumulation at G2/M phase at 10 uM after 24 hrs by flow cytometric analysis (reference value: 9.25%). The format is functional.
Assay [29] relates to HepG2. In words: Cell cycle arrest in human HepG2 cells assessed as accumulation at G2/M phase at 5 uM after 24 hrs by flow cytometric analysis (reference value: 9.25%). The format is functional.
For assay [30], the system named is HepG2. In words: Induction of apoptosis in human HepG2 cells assessed as viable cells at 5 uM after 24 hrs by Annexin V-FITC/propidium iodide staining-based flow cytometric analysis (reference value: 90.1%). The format is functional. The note with it: HepG2, 24 h, read-out: Activity.
The subject of assay [31] is HepG2. In words: Induction of apoptosis in human HepG2 cells assessed as late apoptotic cells at 25 uM after 24 hrs by Annexin V-FITC/propidium iodide staining-based flow cytometric analysis (reference value: 7.34%). The format is functional.

The structures appear in SMILES notation. Calls of active or inactive are those of the source. No cut-off for these calls is given here. Where only a bound is given, the exact number is not on record here.

In the case of `O=C(CCC(=O)N1CCN(c2nc(N3CCOCC3)nc(-n3c(C(F)F)nc4ccccc43)n2)CC1)NCCCCCC(=O)Nc1cccc2c1C(=O)N(C1CCC(=O)NC1=O)C2=O` (stereo unspecified), the Activity turned out to be 10.3% in the assay on HepG2 [1]; 17.9% in the assay on HepG2 [3]; 19.3% in the assay on HepG2 [4]; 5.73% with HepG2 [5]; 3.49% in the assay on HepG2 [6]; 85.6% in the assay on HepG2 [9]. Besides, the Activity result is “Tde” in assay [10]; 12.9% with HepG2 [11]; 0.426% with HepG2 [12]; 0.152% in the assay on HepG2 [13]; 0.4% with HepG2 [14]; “Dose-dependent effect” in [15]. The Activity in the assay with HepG2 [16] is 81.3%; in the assay with HepG2 [17], 14.7%; in assay [18] it was < 50%; in assay [20] it was “Tde”; with HepG2 [22], “Dose-dependent effect”; in the assay with HepG2 [23] it was 85.6%. The Activity with HepG2 [25] is 3.79%; in the assay with HepG2 [26] it was 10.3%; in [27], “Dose-dependent effect”; in the assay on HepG2 [28] it was 10.5%; in the assay on HepG2 [29], 9.99%; in the assay with HepG2 [31], 20.4%. Also, the result (in assay [2]; in the assay on HepG2 [21]) was Active. The inhibition (in general, the relative decrease from the control value, in per cent) at 10 µM in the assay on HepG2 [7] was ≤ 50%. Further, half-maximal inhibition in assay [8] (IC50) was put at 24 nM. Also, the viability at 10 µM in the assay with HepG2 [19] worked out at 65.6%. For the same molecule, in the assay on HepG2 [24], the viability at 25 µM was 68.9%. Besides, the viability at 5 µM with HepG2 [30] turned out to be 71.7%.

With `O=C(CCC(=O)NCCCC(=O)Nc1cccc2c1C(=O)N(C1CCC(=O)NC1=O)C2=O)NCCCCCC(=O)N1CCN(c2nc(N3CCOCC3)nc(-n3c(C(F)F)nc4ccccc43)n2)CC1` (stereo unspecified), in [8], the half-maximal inhibitory concentration (IC50) – broadly, the point on the concentration scale where inhibition reaches its midpoint – stood at 38 nM. Moreover, the outcome with HepG2 [22] was inactive.

In assay [8], `O=C1CCC(N2C(=O)c3cccc(NC(=O)CCCCCN4CCN(c5nc(N6CCOCC6)nc(-n6c(C(F)F)nc7ccccc76)n5)CC4)c3C2=O)C(=O)N1` (stereo unspecified) returned an IC50 of 2850 nM.

Turning to `O=C1CCC(N2C(=O)c3cccc(NC(=O)CCCn4cc(CN5CCN(c6nc(N7CCOCC7)nc(-n7c(C(F)F)nc8ccccc87)n6)CC5)nn4)c3C2=O)C(=O)N1` (stereo unspecified), the result in [2] was Active. For the same molecule, the inhibition at 10 µM in the assay on HepG2 [7] was ≤ 50%. In [8], this molecule came in with an IC50 of 90 nM. Further, the Activity result is “Tde” in assay [10]; “Dose-dependent effect” in assay [15]; < 50% in assay [18]; “Tde” in [20]; “Dose-dependent effect” with HepG2 [22]; “Dose-dependent effect” in [27].

For the molecule `O=C1CCC(N2C(=O)c3cccc(NC(=O)CCCCCn4cc(CN5CCN(c6nc(N7CCOCC7)nc(-n7c(C(F)F)nc8ccccc87)n6)CC5)nn4)c3C2=O)C(=O)N1` (stereo unspecified), in [2], the result was Active. Also, the inhibition at 10 µM with HepG2 [7] was ≤ 50%. Also, in [8], it took 86 nM to reach half-maximal inhibition (IC50). The Activity result in assay [10] is “Tde”; in assay [15] it was “Dose-dependent effect”; in [18], < 50%; in assay [20] it was “Tde”; in the assay on HepG2 [22], “Dose-dependent effect”; in assay [27], “Dose-dependent effect”.

For `O=C(CCC(=O)N1CCN(c2nc(N3CCOCC3)nc(-n3c(C(F)F)nc4ccccc43)n2)CC1)NCCCC(=O)Nc1cccc2c1C(=O)N(C1CCC(=O)NC1=O)C2=O` (stereo unspecified), in assay [2], the result was Active. Further, the inhibition at 10 µM in the assay with HepG2 [7] is ≤ 50%. Besides, in assay [8], the IC50 is 18 nM. The Activity result is “Tde” in [10]; “Dose-dependent effect” in assay [15]; < 50% in [18]; “Tde” in assay [20]; “Dose-dependent effect” in the assay on HepG2 [22]; “Dose-dependent effect” in [27].
